Laboratory results: ChEMBL document CHEMBL1124216, “A novel class of potential central nervous system agents. 3-Phenyl-2-(1-piperazinyl)-5H-1-benzazepines” (1988)

system: Mus musculus; assay: Antimaximal electroshock seizure (MES) activity in mice after peroral administration of 100 mg/kg of compound; 5/5; type: functional; details: route oral

SMILES | Activity
CCc1ccc2c(c1)CC=C(c1ccccc1)C(N1CCN(CC)CC1)=N2.Cl.Cl | 5

system: Mus musculus; assay: Antireserpine activity (RES) of mice after peroral administration of 100 mg/kg of compound; Slight inhibition (31-50%); type: functional; details: route oral

SMILES | inhibition in vivo at 100 mg/kg [%]
Clc1ccc2c(c1)N=C(N1CCNCC1)C(c1ccccc1)=CC2.O=C(O)/C=C/C(=O)O | 31
CN1CCN(C2=Nc3ccccc3CC=C2c2ccccc2)CC1.Cl.Cl | 31

system: Mus musculus; assay: Antireserpine activity (RES) of mice after peroral administration of 50 mg/kg of compound; No inhibition; type: functional; details: route oral

SMILES | inhibition in vivo at 50 mg/kg [%]
CN1CCN(C2=Nc3ccccc3CC=C2c2ccc(C(F)(F)F)cc2)CC1 | < 30
OCCN1CCN(C2=Nc3ccccc3CC=C2c2ccc(C(F)(F)F)cc2)CC1 | < 30
OCCN1CCN(C2=Nc3ccccc3CC=C2c2ccc(O)cc2)CC1 | < 30
CCN1CCN(C2=Nc3ccccc3CC=C2c2ccc(C(F)(F)F)cc2)CC1 | < 30

system: Mus musculus; assay: Antitremorine activity(TRM) of mice after peroral administration of 100 mg/kg of compound; No inhibition; type: functional; details: route oral

SMILES | inhibition in vivo at 100 mg/kg [%]
CN1CCN(C2=Nc3cc(Cl)ccc3CC=C2c2ccc(Cl)cc2)CC1.Cl.Cl | < 30
C1=C(c2ccccc2)C(N2CCCCC2)=Nc2ccccc2C1.Cl.Cl | < 30
OC1(c2ccc(Cl)cc2)CCN(C2=Nc3ccccc3CC=C2c2ccccc2)CC1 | < 30
CCN1CCN(C2=Nc3ccccc3CC=C2c2ccc(Cl)cc2)CC1.Cl.Cl | < 30
Clc1ccc2c(c1)N=C(N1CCNCC1)C(c1ccccc1)=CC2.O=C(O)/C=C/C(=O)O | < 30
CN1CCN(C2=Nc3ccccc3CC=C2c2ccccc2)CC1.Cl.Cl | < 30

system: Mus musculus; assay: Antiexploratory activity (EXPL) of mice determined by an antimex activity meter, 100 mg/kg of dose was administered perorally; Moderate inhibition (51-71%); type: functional; details: route oral

SMILES | inhibition in vivo at 100 mg/kg [%]
CN1CCN(C2=Nc3cc(Cl)ccc3CC=C2c2ccc(Cl)cc2)CC1.Cl.Cl | 51
Cl.Cl.OCCN1CCN(C2=Nc3ccccc3CC=C2c2ccccc2Cl)CC1 | 51
CCN1CCN(C2=Nc3ccccc3CC=C2c2ccc(Cl)cc2)CC1.Cl.Cl | 51
CN1CCN(C2=Nc3ccccc3CC=C2c2ccccc2)CC1.Cl.Cl | 51

system: Mus musculus; assay: Antimaximal electroshock seizure (MES) activity in mice after peroral administration of 10 mg/kg of compound; 0/5; type: functional; details: route oral

SMILES | Activity
CCc1ccc2c(c1)CC=C(c1ccccc1)C(N1CCN(CC)CC1)=N2.Cl.Cl | 0

system: Mus musculus; assay: Antimaximal electroshock seizure activity was determined in mice when administered perorally; type: functional; details: po

SMILES | ED50 [mg/kg]
CN1CCN(C2=Nc3ccccc3CC=C2c2ccccc2)CC1.Cl.Cl | > 100

system: Mus musculus; assay: Antiexploratory activity (EXPL) of mice determined by an antimex activity meter, 50 mg/kg of dose was administered perorally; No inhibition; type: functional; details: route oral

SMILES | inhibition in vivo at 50 mg/kg [%]
CN1CCN(C2=Nc3ccccc3CC=C2c2ccc(C(F)(F)F)cc2)CC1 | < 30
Clc1ccc(C2=CCc3ccccc3N=C2N2CCCCC2)cc1 | < 30
OCCN1CCN(C2=Nc3ccccc3CC=C2c2ccc(C(F)(F)F)cc2)CC1 | < 30
Cl.OC1CCN(C2=Nc3ccccc3CC=C2c2ccc(F)cc2)CC1 | < 30
COc1ccc(C2=CCc3ccccc3N=C2N2CCN(C)CC2)cc1 | < 30
OCCN1CCN(C2=Nc3ccccc3CC=C2c2ccc(O)cc2)CC1 | < 30
Clc1ccc(C2=CCc3ccccc3N=C2N2CCN(Cc3ccccc3)CC2)cc1 | < 30
CCN1CCN(C2=Nc3ccccc3CC=C2c2ccc(C(F)(F)F)cc2)CC1 | < 30

system: Mus musculus; assay: Antimaximal electroshock seizure (MES) activity in mice after peroral administration of 100 mg/kg of compound; 0/5; type: functional; details: route oral

SMILES | Activity
CN1CCN(C2=Nc3cc(Cl)ccc3CC=C2c2ccc(Cl)cc2)CC1.Cl.Cl | 0
Clc1ccc(C2=CCc3ccccc3N=C2N2CCCCC2)cc1 | 0
C1=C(c2ccccc2)C(N2CCCCC2)=Nc2ccccc2C1.Cl.Cl | 0
Cl.OC1CCN(C2=Nc3ccccc3CC=C2c2ccc(F)cc2)CC1 | 0
Cl.Cl.OCCN1CCN(C2=Nc3ccccc3CC=C2c2ccccc2Cl)CC1 | 0
OC1(c2ccc(Cl)cc2)CCN(C2=Nc3ccccc3CC=C2c2ccccc2)CC1 | 0
CCN1CCN(C2=Nc3ccccc3CC=C2c2ccc(Cl)cc2)CC1.Cl.Cl | 0
Clc1ccc2c(c1)N=C(N1CCNCC1)C(c1ccccc1)=CC2.O=C(O)/C=C/C(=O)O | 0
CN1CCN(C2=Nc3ccccc3CC=C2c2ccccc2)CC1.Cl.Cl | 0
CN1CCN(C2=Nc3ccccc3CC=C2c2ccc(Cl)cc2)CC1.Cl.Cl | 0

system: Mus musculus; assay: Antiexploratory activity (EXPL) of mice determined by an antimex activity meter, 100 mg/kg of dose was administered perorally; Slight inhibition (31-50%); type: functional; details: route oral

SMILES | inhibition in vivo at 100 mg/kg [%]
C1=C(c2ccccc2)C(N2CCCCC2)=Nc2ccccc2C1.Cl.Cl | 31
OC1(c2ccc(Cl)cc2)CCN(C2=Nc3ccccc3CC=C2c2ccccc2)CC1 | 31
CCc1ccc2c(c1)CC=C(c1ccccc1)C(N1CCN(CC)CC1)=N2.Cl.Cl | 31
Clc1ccc2c(c1)N=C(N1CCNCC1)C(c1ccccc1)=CC2.O=C(O)/C=C/C(=O)O | 31
CN1CCN(C2=Nc3ccccc3CC=C2c2ccc(Cl)cc2)CC1.Cl.Cl | 31

system: Mus musculus; assay: Antitremorine activity(TRM) of mice after peroral administration of 50 mg/kg of compound; No inhibition; type: functional; details: route oral

SMILES | inhibition in vivo at 50 mg/kg [%]
Clc1ccc(C2=CCc3ccccc3N=C2N2CCCCC2)cc1 | < 30
Cl.OC1CCN(C2=Nc3ccccc3CC=C2c2ccc(F)cc2)CC1 | < 30

system: Mus musculus; assay: Antireserpine activity (RES) of mice after peroral administration of 50 mg/kg of compound; Slight inhibition (31-50%); type: functional; details: route oral

SMILES | inhibition in vivo at 50 mg/kg [%]
COc1ccc(C2=CCc3ccccc3N=C2N2CCN(C)CC2)cc1 | 31
Clc1ccc(C2=CCc3ccccc3N=C2N2CCN(Cc3ccccc3)CC2)cc1 | 31

system: Mus musculus; assay: Antitremorine activity(TRM) of mice after peroral administration of 100 mg/kg of compound; Slight inhibition (31-50%); type: functional; details: route oral

SMILES | inhibition in vivo at 100 mg/kg [%]
Cl.Cl.OCCN1CCN(C2=Nc3ccccc3CC=C2c2ccccc2Cl)CC1 | 31
CN1CCN(C2=Nc3ccccc3CC=C2c2ccc(Cl)cc2)CC1.Cl.Cl | 31

system: Mus musculus; assay: Antitremorine activity(TRM) of mice after peroral administration of 100 mg/kg of compound; Moderate inhibition (51-71%); type: functional; details: route oral

SMILES | inhibition in vivo at 100 mg/kg [%]
CCc1ccc2c(c1)CC=C(c1ccccc1)C(N1CCN(CC)CC1)=N2.Cl.Cl | 51

system: Mus musculus; assay: Antireserpine activity (RES) of mice after peroral administration of 100 mg/kg of compound; No inhibition; type: functional; details: route oral

SMILES | inhibition in vivo at 100 mg/kg [%]
CN1CCN(C2=Nc3cc(Cl)ccc3CC=C2c2ccc(Cl)cc2)CC1.Cl.Cl | < 30
Clc1ccc(C2=CCc3ccccc3N=C2N2CCCCC2)cc1 | < 30
C1=C(c2ccccc2)C(N2CCCCC2)=Nc2ccccc2C1.Cl.Cl | < 30
Cl.OC1CCN(C2=Nc3ccccc3CC=C2c2ccc(F)cc2)CC1 | < 30
Cl.Cl.OCCN1CCN(C2=Nc3ccccc3CC=C2c2ccccc2Cl)CC1 | < 30
OC1(c2ccc(Cl)cc2)CCN(C2=Nc3ccccc3CC=C2c2ccccc2)CC1 | < 30
CCc1ccc2c(c1)CC=C(c1ccccc1)C(N1CCN(CC)CC1)=N2.Cl.Cl | < 30
CCN1CCN(C2=Nc3ccccc3CC=C2c2ccc(Cl)cc2)CC1.Cl.Cl | < 30
CN1CCN(C2=Nc3ccccc3CC=C2c2ccc(Cl)cc2)CC1.Cl.Cl | < 30
